Columns and labels:
[1] = Genotoxicity in Salmonella typhimurium by Ames II test; assay type: toxicity; conditions: salmonella enterica subsp. enterica serovar typhimurium
[2] = biological target: T1, Nuclear receptor subfamily 1 group I member 2 (Homo sapiens, UniProt O75469); experiment: Activation of human PXR at 1 uM relative to control; assay type: toxicity
T1 sequence (O75469 whole entry): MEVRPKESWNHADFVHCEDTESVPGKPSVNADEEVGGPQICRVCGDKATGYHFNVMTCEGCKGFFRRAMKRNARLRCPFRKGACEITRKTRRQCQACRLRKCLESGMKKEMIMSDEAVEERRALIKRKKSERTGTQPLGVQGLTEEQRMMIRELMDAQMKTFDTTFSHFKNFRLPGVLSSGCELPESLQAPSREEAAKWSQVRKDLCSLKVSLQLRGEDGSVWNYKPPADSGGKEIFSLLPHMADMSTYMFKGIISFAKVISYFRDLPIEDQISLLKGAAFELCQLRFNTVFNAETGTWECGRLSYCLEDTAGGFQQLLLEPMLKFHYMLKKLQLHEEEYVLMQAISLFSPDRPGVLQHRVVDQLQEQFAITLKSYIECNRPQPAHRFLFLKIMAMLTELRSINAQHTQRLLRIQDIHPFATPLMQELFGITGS

[3] = Aqueous solubility of the compound at pH 7; assay type: physicochemical; conditions: aqueous solution
[4] = biological target: T2, Nuclear receptor subfamily 1 group I member 3 (Homo sapiens, UniProt Q14994); experiment: Antagonist activity at CAR (unknown origin) up to 1.5 uM by mammalian 1-hybrid assay
T2 sequence (Q14994 whole entry): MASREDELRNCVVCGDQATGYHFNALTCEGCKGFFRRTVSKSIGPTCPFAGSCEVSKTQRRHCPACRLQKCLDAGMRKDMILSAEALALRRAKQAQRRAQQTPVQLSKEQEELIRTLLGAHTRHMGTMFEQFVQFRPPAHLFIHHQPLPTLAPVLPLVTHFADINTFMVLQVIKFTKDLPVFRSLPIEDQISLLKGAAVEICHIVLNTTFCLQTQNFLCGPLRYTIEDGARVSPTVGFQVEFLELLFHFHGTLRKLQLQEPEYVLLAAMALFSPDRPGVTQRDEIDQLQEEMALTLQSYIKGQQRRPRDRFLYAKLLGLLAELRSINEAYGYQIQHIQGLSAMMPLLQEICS

[5] = Plasma protein binding in dog assessed as unbound fraction; assay type: ADME, cell-free, Canis lupus familiaris
[6] = Volume of distribution at steady state in male Sprague-Dawley rat at 5 mg/kg, po or 1 mg/kg, iv measured 24 hrs post dose by LC-MS/MS analysis; assay type: ADME, organism-based; conditions: in vivo
[7] = biological target: T2, Nuclear receptor subfamily 1 group I member 3; experiment: Agonist activity at CAR (unknown origin) up to 1.5 uM by mammalian 1-hybrid assay
[8] = Plasma protein binding in human assessed as unbound fraction; assay type: ADME, cell-free
[9] = Plasma protein binding in mouse assessed as unbound fraction; assay type: ADME, cell-free
[10] = Aqueous solubility of the compound at pH 2; assay type: physicochemical; conditions: aqueous solution
[11] = Metabolic stability in mouse liver microsomes assessed as half life; assay type: ADME, Microsome
Cytochrome P450 2D6 = Cytochrome P450 2D6 (Homo sapiens, UniProt P10635); experiment: Inhibition of human CYP2D6; assay type: ADME
Cytochrome P450 2D6, sequence (P10635 whole entry): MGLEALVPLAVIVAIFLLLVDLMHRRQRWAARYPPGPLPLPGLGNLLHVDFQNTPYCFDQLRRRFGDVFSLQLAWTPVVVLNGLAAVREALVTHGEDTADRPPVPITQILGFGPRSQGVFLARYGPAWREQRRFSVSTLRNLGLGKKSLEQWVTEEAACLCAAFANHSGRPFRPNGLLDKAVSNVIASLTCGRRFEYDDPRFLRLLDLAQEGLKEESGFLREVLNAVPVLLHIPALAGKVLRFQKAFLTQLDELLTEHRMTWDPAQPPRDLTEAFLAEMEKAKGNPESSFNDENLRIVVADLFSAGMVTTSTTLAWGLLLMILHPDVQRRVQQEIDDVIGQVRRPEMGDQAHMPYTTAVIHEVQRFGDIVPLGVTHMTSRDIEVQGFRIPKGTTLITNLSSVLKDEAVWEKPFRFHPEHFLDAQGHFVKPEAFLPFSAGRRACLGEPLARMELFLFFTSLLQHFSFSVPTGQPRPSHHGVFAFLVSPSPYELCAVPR

[12] = biological target: T3, Nuclear receptor ROR-gamma (Mus musculus, UniProt P51450); experiment: Inverse agonist activity at RORgammat in mouse whole blood assessed as IL-17A production incubated for 1 hrs by ELISA analysis
T3 sequence (P51450 whole entry): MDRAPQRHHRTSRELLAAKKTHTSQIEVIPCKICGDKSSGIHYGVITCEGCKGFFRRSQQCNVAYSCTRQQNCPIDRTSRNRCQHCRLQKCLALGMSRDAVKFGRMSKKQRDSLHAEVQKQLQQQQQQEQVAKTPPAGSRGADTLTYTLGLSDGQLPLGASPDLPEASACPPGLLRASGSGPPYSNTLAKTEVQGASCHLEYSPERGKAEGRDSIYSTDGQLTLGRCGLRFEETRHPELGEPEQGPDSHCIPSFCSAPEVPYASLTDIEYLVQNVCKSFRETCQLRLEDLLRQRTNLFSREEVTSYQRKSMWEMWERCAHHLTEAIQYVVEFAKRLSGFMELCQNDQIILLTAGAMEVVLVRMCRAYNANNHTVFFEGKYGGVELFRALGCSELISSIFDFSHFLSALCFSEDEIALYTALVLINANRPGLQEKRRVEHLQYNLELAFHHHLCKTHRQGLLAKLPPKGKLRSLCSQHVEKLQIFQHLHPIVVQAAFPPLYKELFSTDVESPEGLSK

Cytochrome P450 2C9 = Cytochrome P450 2C9 (Homo sapiens, UniProt P11712); experiment: Inhibition of human CYP2C9; assay type: ADME
Cytochrome P450 2C9, sequence (P11712 whole entry): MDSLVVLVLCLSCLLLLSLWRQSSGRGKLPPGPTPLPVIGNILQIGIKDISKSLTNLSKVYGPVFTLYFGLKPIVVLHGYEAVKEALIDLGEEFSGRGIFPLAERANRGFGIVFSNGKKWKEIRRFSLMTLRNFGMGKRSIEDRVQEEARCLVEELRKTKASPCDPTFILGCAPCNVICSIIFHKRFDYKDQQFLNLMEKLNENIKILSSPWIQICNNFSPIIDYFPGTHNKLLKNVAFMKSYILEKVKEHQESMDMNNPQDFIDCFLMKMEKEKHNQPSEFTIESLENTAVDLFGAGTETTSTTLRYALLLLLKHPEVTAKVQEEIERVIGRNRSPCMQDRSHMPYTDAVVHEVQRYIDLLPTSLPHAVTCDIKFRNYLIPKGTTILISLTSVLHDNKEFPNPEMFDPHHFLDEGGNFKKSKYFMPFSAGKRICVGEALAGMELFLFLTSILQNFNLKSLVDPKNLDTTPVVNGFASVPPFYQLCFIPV

[13] = Volume of distribution at steady state in male overnight fasted Beagle dog at 5 mg/kg, po or 1 mg/kg, iv measured 24 hrs post dose by LC-MS/MS analysis; assay type: ADME, organism-based, Canis lupus familiaris; conditions: in vivo
Cytochrome P450 3A4 [14] = biological target: T4, Cytochrome P450 3A4 (Homo sapiens, UniProt P08684); experiment: Inhibition of human CYP3A4; assay type: ADME
T4 sequence (P08684 whole entry): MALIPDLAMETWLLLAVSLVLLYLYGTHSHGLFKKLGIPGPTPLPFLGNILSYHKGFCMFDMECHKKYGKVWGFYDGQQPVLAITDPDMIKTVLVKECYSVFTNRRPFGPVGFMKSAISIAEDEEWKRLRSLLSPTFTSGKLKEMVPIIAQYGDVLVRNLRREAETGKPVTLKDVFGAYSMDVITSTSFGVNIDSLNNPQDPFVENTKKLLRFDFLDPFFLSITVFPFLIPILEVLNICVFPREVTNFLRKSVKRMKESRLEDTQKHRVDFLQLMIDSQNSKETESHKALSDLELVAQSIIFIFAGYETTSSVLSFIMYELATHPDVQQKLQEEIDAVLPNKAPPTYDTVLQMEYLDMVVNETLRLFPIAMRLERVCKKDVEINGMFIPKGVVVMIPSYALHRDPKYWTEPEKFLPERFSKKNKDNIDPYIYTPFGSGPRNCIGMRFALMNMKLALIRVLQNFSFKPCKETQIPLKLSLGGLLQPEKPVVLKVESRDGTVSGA

[15] = Metabolic stability in human liver microsomes assessed as half life; assay type: ADME, Microsome
[16] = Half life in male Sprague-Dawley rat at 5 mg/kg, po or 1 mg/kg, iv measured 24 hrs post dose by LC-MS/MS analysis; assay type: ADME, organism-based; conditions: in vivo
[17] = Solubility of compound in FaSSIF; assay type: physicochemical
Cytochrome P450 2C19 = Cytochrome P450 2C19 (Homo sapiens, UniProt P33261); experiment: Inhibition of human CYP2C19; assay type: ADME
Cytochrome P450 2C19, sequence (P33261 whole entry): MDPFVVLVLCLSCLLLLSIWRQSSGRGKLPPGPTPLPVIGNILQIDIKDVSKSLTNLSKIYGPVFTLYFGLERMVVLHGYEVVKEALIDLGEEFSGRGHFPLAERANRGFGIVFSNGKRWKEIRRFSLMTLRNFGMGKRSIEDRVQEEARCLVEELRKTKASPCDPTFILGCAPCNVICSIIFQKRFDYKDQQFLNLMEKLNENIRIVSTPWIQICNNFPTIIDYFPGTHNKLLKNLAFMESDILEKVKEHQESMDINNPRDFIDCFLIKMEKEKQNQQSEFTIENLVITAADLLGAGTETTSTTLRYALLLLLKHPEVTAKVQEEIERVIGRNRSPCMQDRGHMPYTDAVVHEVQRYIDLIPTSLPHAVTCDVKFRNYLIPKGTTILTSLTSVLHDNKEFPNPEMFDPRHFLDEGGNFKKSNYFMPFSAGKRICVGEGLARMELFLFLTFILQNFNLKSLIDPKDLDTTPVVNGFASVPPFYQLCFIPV

PXR [18] = biological target: T5, PXR (Homo sapiens, UniProt O75469); experiment: Activation of human PXR at 5 uM relative to control; assay type: toxicity; conditions: read-out: Activity
T5 sequence (O75469 whole entry): T1 sequence (O75469 whole entry)

[19] = Oral bioavailability in male overnight fasted Beagle dog at 5 mg/kg measured 24 hrs post dose by LC-MS/MS analysis; assay type: ADME, organism-based, Canis lupus familiaris; conditions: in vivo
[20] = Solubility of compound in SGF; assay type: physicochemical
[21] = Plasma protein binding in rat assessed as unbound fraction; assay type: ADME, cell-free
[22] = Half life in male overnight fasted Beagle dog at 5 mg/kg, po or 1 mg/kg, iv measured 24 hrs post dose by LC-MS/MS analysis; assay type: ADME, organism-based, Canis lupus familiaris; conditions: in vivo
Cytochrome P450 2C8 = biological target: T6, Cytochrome P450 2C8 (Homo sapiens, UniProt P10632); experiment: Inhibition of human CYP2C8; assay type: ADME
T6 sequence (P10632 whole entry): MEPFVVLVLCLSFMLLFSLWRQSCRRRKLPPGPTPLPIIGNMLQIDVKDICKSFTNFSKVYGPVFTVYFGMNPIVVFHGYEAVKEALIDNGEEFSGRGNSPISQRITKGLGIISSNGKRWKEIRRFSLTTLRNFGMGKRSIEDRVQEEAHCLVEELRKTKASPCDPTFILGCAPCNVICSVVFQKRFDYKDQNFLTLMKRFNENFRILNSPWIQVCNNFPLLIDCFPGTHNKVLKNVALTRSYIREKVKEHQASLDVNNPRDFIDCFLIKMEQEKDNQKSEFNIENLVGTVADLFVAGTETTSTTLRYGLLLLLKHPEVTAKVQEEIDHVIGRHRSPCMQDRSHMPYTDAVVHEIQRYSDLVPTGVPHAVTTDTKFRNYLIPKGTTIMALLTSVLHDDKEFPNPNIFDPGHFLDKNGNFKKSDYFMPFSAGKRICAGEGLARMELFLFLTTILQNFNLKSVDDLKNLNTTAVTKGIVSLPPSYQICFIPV

hERG = hERG (Homo sapiens, UniProt Q12809); experiment: Inhibition of hERG at 10 uM by Q-patch clamp method relative to control; assay type: toxicity
hERG, sequence (Q12809 whole entry): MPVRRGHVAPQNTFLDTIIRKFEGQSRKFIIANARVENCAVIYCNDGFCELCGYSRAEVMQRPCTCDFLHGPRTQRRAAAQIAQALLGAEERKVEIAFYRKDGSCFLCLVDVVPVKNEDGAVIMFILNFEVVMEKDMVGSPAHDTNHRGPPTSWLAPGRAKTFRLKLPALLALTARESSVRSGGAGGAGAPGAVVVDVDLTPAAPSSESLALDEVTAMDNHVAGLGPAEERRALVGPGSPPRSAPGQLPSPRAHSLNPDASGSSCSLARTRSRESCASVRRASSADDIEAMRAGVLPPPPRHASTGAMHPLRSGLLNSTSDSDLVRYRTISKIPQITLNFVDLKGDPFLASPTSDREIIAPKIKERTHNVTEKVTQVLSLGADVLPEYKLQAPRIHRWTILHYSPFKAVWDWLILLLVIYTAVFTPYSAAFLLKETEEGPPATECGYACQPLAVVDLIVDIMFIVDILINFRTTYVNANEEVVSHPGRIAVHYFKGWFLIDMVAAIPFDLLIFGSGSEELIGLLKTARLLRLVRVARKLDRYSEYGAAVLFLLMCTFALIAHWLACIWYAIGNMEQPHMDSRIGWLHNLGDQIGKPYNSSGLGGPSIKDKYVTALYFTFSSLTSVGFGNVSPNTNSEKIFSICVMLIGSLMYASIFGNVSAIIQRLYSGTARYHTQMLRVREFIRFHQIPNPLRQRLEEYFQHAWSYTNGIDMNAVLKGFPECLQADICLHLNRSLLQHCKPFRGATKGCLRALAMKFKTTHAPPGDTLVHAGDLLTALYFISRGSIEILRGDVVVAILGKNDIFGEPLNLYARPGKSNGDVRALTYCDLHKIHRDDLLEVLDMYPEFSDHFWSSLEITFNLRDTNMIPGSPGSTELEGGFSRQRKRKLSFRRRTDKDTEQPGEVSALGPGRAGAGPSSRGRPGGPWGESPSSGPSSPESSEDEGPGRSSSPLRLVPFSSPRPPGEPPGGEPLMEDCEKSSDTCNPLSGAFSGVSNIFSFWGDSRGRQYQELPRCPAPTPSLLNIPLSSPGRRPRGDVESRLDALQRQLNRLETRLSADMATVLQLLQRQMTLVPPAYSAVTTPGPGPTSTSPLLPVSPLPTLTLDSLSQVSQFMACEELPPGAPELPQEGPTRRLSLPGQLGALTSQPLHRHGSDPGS

[23] = biological target: Voltage-gated inwardly rectifying potassium channel KCNH2 (Homo sapiens, UniProt Q12809); experiment: Inhibition of hERG by Q-patch clamp method; assay type: toxicity
Voltage-gated inwardly rectifying potassium channel KCNH2, sequence (Q12809 whole entry): as above

[24] = Oral bioavailability in male Sprague-Dawley rat at 5 mg/kg measured 24 hrs post dose by LC-MS/MS analysis; assay type: ADME, organism-based; conditions: in vivo
PXR [25] = biological target: T5, PXR; experiment: Activation of human PXR at 10 uM relative to control; assay type: toxicity; conditions: read-out: Activity
[26] = Metabolic stability in rat liver microsomes assessed as half life; assay type: ADME, Microsome
Cytochrome P450 3A4 [27] = biological target: T4, Cytochrome P450 3A4; experiment: Induction of CYP3A4 in human hepatocytes at 10 uM relative to control; assay type: ADME, cell-based, Hepatocyte
Cytochrome P450 3A4 [28] = biological target: T4, Cytochrome P450 3A4; experiment: Time dependent inhibition of CYP3A4 (unknown origin); assay type: ADME
[29] = Inverse agonist activity at RORgammat in rat whole blood assessed as IL-17A production incubated for 1 hrs by ELISA analysis; assay type: tissue-based

With `C[C@H]1CCCN1C(=O)c1nc(C(=O)NCC(C)(C)O)sc1-c1ccc(C(O)(C(F)(F)F)C(F)(F)F)c(Cl)c1Cl` the Activity [1] was “Non-toxic”, the Activity [2] was 18% and the solubility [3] was < 4 µM. For the same molecule, the Activity [4] was “Not_active”, the fraction unbound [5] was 0.009 and the Vdss [6] was 1.3 L/kg. The Activity [7] was “Not_active”, the fraction unbound [8] was 0.008 and the fraction unbound [9] was 0.008. For the same molecule, the solubility [10] was < 4 µM, the half-life [11] was > 3 h and the IC50 (Cytochrome P450 2D6) was 3.8 µM. It also gave an IC50 [12] of 0.21 µM, an IC50 (Cytochrome P450 2C9) of 4.4 µM and a Vdss [13] of 1.5 L/kg. For the same molecule, the IC50 (Cytochrome P450 3A4 [14]) was 20 µM, the half-life [15] was > 3 h and the half-life [16] was 4.1 h. The solubility [17] was < 4 µM, the IC50 (Cytochrome P450 2C19) was 31 µM and the activity at 5 µM (PXR [18]) was 21%. The bioavailability [19] was 100%, the solubility [20] was < 4 µM and the fraction unbound [21] was 0.012. The half-life [22] was 26.2 h, the IC50 (Cytochrome P450 2C8) was 18 µM and the inhibition at 10 µM (hERG) was 52%. The IC50 [23] was 29.5 µM, the bioavailability [24] was 69% and the activity at 10 µM (PXR [25]) was 42%. The half-life [26] was > 3 h, the Activity (Cytochrome P450 3A4 [27]) was 26% and the TDI (Cytochrome P450 3A4 [28]) was “Not_active”. It also gave an IC50 [29] of 0.12 µM.
